The values that follow come from ChEMBL document CHEMBL4823311, “Optimization of Naphthyridones into Selective TATA-Binding Protein Associated Factor 1 (TAF1) Bromodomain Inhibitors” (ACS Med Chem Lett, 2021).

For assay [1], the target named is T1, Bromodomain-containing protein 9 (Homo sapiens, UniProt Q9H8M2).
T1 sequence (Q9H8M2 whole entry): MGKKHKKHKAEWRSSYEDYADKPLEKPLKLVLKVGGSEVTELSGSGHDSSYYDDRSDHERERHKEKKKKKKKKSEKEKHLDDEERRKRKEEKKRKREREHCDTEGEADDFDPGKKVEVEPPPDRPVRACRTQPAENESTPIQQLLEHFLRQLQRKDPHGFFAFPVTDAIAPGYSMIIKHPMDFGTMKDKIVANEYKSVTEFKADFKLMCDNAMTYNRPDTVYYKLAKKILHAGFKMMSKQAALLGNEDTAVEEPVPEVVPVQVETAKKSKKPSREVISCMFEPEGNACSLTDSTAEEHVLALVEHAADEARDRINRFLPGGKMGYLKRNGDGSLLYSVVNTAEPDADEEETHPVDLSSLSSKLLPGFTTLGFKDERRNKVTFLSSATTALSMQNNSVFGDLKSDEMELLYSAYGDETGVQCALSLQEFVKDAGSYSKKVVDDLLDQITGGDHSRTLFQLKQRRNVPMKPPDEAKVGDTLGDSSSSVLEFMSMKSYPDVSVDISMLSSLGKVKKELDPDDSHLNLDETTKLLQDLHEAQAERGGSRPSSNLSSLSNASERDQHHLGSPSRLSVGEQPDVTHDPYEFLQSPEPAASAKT
In words: Inhibition of human partial length BRD9 (R130 to V259 residues) expressed in bacterial expression system measured by BROMOscan assay.

The target in assay [2] is T2, Bromodomain-containing protein 4 (Homo sapiens, UniProt O60885). In words: Inhibition of BRD4 BD2 (unknown origin) measured by TR-FRET assay. (Time-resolved FRET reads energy transfer from a long-lived donor to a nearby acceptor.)
Assay [3] has as its target T3, ATPase family AAA domain-containing protein 2 (Homo sapiens) (UniProt Q6PL18).
T3 sequence (whole entry): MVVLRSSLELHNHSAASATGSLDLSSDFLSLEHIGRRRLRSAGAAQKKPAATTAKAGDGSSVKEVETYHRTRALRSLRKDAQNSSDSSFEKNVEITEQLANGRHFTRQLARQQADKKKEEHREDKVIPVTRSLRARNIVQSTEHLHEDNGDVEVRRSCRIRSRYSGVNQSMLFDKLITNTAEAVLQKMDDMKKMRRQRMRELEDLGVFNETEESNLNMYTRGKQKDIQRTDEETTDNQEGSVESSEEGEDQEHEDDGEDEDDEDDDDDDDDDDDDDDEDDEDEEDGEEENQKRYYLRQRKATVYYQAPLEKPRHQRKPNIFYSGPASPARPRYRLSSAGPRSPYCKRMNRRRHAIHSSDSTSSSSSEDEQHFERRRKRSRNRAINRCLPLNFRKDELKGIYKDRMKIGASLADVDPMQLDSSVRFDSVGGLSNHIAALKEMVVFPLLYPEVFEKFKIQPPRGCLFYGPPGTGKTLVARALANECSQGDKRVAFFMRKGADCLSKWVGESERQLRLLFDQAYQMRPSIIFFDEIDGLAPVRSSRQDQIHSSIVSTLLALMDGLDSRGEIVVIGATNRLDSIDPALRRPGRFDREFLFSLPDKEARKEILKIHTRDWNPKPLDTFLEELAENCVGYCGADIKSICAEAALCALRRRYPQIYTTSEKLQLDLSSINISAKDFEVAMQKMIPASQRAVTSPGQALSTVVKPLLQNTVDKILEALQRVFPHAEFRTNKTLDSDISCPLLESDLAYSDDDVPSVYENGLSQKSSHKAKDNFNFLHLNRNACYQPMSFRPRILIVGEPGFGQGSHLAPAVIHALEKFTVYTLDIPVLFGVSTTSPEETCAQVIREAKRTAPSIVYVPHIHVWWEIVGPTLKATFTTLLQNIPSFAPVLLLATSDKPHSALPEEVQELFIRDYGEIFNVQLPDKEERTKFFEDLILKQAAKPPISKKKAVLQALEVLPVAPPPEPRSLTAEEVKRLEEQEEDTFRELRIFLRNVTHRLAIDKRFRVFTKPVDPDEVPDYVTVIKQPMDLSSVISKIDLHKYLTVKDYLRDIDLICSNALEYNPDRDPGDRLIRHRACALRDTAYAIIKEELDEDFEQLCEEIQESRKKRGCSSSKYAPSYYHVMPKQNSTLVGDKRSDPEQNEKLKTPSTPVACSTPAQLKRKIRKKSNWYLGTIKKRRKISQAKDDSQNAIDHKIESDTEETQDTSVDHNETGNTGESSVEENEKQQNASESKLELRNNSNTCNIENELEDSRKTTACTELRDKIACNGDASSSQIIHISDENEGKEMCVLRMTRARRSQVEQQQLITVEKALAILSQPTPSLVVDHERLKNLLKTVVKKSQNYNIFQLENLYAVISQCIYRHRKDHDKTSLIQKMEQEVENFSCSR
In words: Inhibition of human partial length ATAD2 (Q981 to R1108 residues) expressed in bacterial expression system at 10 uM measured by BROMOscan assay.

For assay [4], the target named is Transcription initiation factor TFIID subunit 1 (Homo sapiens, UniProt P21675). In words: Inhibition of TAF1 bromodomain 2 (unknown origin) by TR-FRET assay.
Transcription initiation factor TFIID subunit 1, sequence (P21675 whole entry, the tested form may be a part): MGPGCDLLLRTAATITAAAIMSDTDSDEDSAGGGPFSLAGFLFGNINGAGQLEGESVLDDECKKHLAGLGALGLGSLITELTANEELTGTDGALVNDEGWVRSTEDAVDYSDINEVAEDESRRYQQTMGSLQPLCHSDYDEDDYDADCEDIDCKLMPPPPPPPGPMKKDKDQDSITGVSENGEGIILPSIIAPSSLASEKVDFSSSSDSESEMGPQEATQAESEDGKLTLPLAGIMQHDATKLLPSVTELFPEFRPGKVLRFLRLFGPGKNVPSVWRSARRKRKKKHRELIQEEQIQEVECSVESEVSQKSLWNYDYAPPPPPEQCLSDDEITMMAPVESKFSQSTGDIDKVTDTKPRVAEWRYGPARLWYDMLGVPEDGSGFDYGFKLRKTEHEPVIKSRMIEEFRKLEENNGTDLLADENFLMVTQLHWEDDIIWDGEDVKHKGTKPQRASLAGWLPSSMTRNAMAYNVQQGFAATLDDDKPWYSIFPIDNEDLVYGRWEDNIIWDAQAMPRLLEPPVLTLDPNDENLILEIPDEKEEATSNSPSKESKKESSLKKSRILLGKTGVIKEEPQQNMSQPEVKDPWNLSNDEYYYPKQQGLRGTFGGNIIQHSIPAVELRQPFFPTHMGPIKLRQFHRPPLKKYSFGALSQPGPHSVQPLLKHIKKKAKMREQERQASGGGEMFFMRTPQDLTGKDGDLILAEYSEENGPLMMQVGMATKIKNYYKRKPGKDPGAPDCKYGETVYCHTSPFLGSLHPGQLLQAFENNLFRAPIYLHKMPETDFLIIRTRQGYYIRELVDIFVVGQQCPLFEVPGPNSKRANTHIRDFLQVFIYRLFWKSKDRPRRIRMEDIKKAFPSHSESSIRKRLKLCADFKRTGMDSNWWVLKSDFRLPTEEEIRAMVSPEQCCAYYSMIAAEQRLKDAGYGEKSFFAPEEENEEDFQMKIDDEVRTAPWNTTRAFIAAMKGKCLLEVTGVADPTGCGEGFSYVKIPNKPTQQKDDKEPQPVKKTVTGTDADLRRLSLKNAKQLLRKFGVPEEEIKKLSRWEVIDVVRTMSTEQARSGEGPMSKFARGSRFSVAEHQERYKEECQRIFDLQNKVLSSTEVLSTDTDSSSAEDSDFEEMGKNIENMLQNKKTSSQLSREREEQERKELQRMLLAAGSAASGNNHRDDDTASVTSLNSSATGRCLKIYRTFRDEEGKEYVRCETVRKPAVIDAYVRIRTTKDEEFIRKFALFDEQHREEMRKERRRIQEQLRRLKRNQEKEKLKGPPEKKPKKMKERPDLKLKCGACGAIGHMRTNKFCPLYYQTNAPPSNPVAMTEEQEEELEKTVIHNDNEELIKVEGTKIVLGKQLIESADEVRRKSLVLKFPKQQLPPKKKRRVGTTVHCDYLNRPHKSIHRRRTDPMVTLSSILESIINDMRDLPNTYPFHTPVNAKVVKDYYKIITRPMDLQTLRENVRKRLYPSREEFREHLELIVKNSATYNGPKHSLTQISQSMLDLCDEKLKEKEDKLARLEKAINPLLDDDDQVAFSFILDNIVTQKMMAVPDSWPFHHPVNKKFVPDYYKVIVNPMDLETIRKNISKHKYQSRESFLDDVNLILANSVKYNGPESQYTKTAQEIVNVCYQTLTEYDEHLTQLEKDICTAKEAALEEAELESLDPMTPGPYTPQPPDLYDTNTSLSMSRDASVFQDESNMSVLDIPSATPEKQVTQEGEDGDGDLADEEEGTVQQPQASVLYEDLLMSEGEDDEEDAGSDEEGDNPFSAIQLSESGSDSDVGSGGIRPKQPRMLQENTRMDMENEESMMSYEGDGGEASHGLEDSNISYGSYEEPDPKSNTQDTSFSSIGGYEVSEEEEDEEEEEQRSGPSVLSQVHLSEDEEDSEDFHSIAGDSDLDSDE
The target of assay [5] is T2, Bromodomain-containing protein 4. In words: Inhibition of human partial length BRD4 BD1 (N44 to E168 residues) expressed in bacterial expression system by BROMOscan assay.

Each structure is given as a SMILES string.

Regarding `Cc1cc2c(C3=CCOCC3)cnc(NC3CCN(C(=O)C(F)(F)CN)CC3)c2[nH]c1=O`, the results for the Ki in assay [1] and in assay [5] were 39.8 nM and above 5.01 µM, respectively. The IC50 in assay [2] was 5.01 µM; in assay [4], 39.8 nM. In assay [3], the inhibition turned out to be 24%.

As a reminder, the Ki is a measure of affinity in units of concentration, obtained from inhibition or displacement. In general, IC50 refers to the concentration that inhibits the measured activity by half. A lower IC50 goes with inhibition by little substance. As a reminder, the inhibition is the relative decrease from the control value, in per cent. A higher inhibition goes with strong suppression.
